Usually IC50 stands for the concentration at which inhibition is half-maximal.

The values that follow come from article PMC9908766, “Characterizing metabolic drivers of Clostridioides difficile infection with activity-based hydrazine probes” (Frontiers in Pharmacology, 2023).

The assay has as its target T1, D-proline reductase (PR), PrdA subunit (Clostridioides difficile, UniProt Q17ZY9).
T1 construct: native PR complex purified from C. difficile VPI 10463; processed PrdA (~23 kDa) with N-terminal pyruvoyl; with PrdB
Kind of assay: fluorometric OPA assay of 5-aminovalerate production by purified PR. The class given is biochemical.

Molecule `NNCCc1ccccc1` [compound 5, phenelzine] came in with a half-inhibitory concentration (IC50) of 460 ± 30 µM.
